Non-standard residues stand in square brackets, D forms with d. Residues, ends and D or L forms follow the SMILES beside them. *: point of attachment. Cbz = O=C(OCc1ccccc1)*; Bn = c1ccc(C*)cc1
Test system: LRF-induced luteinizing hormone (LH) release in rat anterior pituitary cell cultures
Experiment: In vitro test in rat anterior pituitary cell cultures: inhibition of LRF-induced LH release into the culture medium
Assay type: cell-based
Procedure: octapeptides of this invention are screened for LRF antagonist activity in vitro using rat anterior pituitary cell cultures as described by Vale et al. [Endocrinology, 91, 562 (1972)]. The inhibition of LRF-induced luteinizing hormone (LH) release into the culture medium is the endpoint in this in vitro bioassay. Active peptides are then tested in vivo by the procedures of Humphrey et al. [Endocrinology, 92, 1515 (1972)]. Antagonist activity is assessed by the inhibition of LRF-induced LH release in the female rat and LRF-induced ovulation in the rabbit.
Following are the results of the above in vitro tests on certain preferred compounds.

[1] = first series, compound 1×10^-8 molar, LRF 5×10^-10, LRF control 52.80, saline control 13.28
[2] = first series, compound 1×10^-9 molar, LRF 5×10^-10, LRF control 52.80, saline control 13.28
[3] = first series, compound 1×10^-10 molar, LRF 5×10^-10, LRF control 52.80, saline control 13.28
[4] = first series, compound 2.5×10^-9 molar, LRF 5×10^-10, LRF control 52.80, saline control 13.28
[5] = first series, compound 2.5×10^-10 molar, LRF 5×10^-10, LRF control 52.80, saline control 13.28
[6] = first series, compound 5×10^-9 molar, LRF 5×10^-10, LRF control 52.80, saline control 13.28
[7] = first series, compound 5×10^-10 molar, LRF 5×10^-10, LRF control 52.80, saline control 13.28
[8] = second series, compound 1×10^-9 molar, LRF 5×10^-10, LRF control 69.43, saline control 18.17
[9] = second series, compound 1×10^-10 molar, LRF 5×10^-10, LRF control 69.43, saline control 18.17
[10] = second series, compound 2.5×10^-9 molar, LRF 5×10^-10, LRF control 69.43, saline control 18.17
[11] = second series, compound 2.5×10^-10 molar, LRF 5×10^-10, LRF control 69.43, saline control 18.17
[12] = second series, compound 5×10^-10 molar, LRF 5×10^-10, LRF control 69.43, saline control 18.17
[13] = compound 1×10^-8 molar, LRF 5×10^-10, LRF control 46.58, saline control 9.10
[14] = compound 1×10^-9 molar, LRF 5×10^-10, LRF control 46.58, saline control 9.10
[15] = compound 5×10^-8 molar, LRF 5×10^-10, LRF control 46.58, saline control 9.10
[16] = compound 5×10^-9 molar, LRF 5×10^-10, LRF control 46.58, saline control 9.10
[17] = compound 1×10^-8 molar, LRF 3.5×10^-10, LRF control 42.38, saline control 8.72
[18] = compound 1×10^-9 molar, LRF 3.5×10^-10, LRF control 42.38, saline control 8.72
[19] = compound 1×10^-10 molar, LRF 3.5×10^-10, LRF control 42.38, saline control 8.72
[20] = compound 2×10^-9 molar, LRF 3.5×10^-10, LRF control 42.38, saline control 8.72
[21] = compound 2.5×10^-10 molar, LRF 3.5×10^-10, LRF control 42.38, saline control 8.72
[22] = compound 3.5×10^-9 molar, LRF 3.5×10^-10, LRF control 42.38, saline control 8.72
[23] = compound 6×10^-9 molar, LRF 3.5×10^-10, LRF control 42.38, saline control 8.72
[24] = compound 6×10^-10 molar, LRF 3.5×10^-10, LRF control 42.38, saline control 8.72
[25] = compound 2×10^-8 molar, LRF 3.5×10^-10, LRF control 42.38, saline control 8.72

N^α -BENZYLOXYCARBONYL-O-BENZYL-L-SERYL-L-TRYPTOPHYL-L-SERYL-L-TYROSYL-D-PENTAMETHYLPHENYLALANYL-L-LEUCYL-L-ARGINYL-L-PROLINE N-ETHYLAMIDE
% LH Release Inhibition [1]: 104% | LH Value [1]: 11.58 ng/mL | % LH Release Inhibition [2]: 91% | LH Value [2]: 16.69 ng/mL | % LH Release Inhibition [3]: 36% | LH Value [3]: 38.59 ng/mL | % LH Release Inhibition [4]: 105% | LH Value [4]: 11.35 ng/mL | % LH Release Inhibition [5]: 47% | LH Value [5]: 34.06 ng/mL | % LH Release Inhibition [6]: 100% | LH Value [6]: 13.16 ng/mL | % LH Release Inhibition [7]: 70% | LH Value [7]: 25.16 ng/mL | % LH Release Inhibition [8]: 104% | LH Value [8]: 16.00 ng/mL | % LH Release Inhibition [9]: 46% | LH Value [9]: 46.11 ng/mL | % LH Release Inhibition [10]: 98% | LH Value [10]: 19.09 ng/mL | % LH Release Inhibition [11]: 77% | LH Value [11]: 30.08 ng/mL | % LH Release Inhibition [12]: 90% | LH Value [12]: 23.26 ng/mL

CCNC(=O)[C@@H]1CCCN1C(=O)[C@H](CCCNC(=N)N)NC(=O)[C@H](CC(C)C)NC(=O)[C@@H](Cc1ccccc1)NC(=O)[C@H](Cc1ccc(O)cc1)NC(=O)[C@H](CO)NC(=O)[C@H](Cc1c[nH]c2ccccc12)NC(=O)[C@H](CCC(N)=O)NC(=O)OCc1ccccc1 [N^α -Benzyloxycarbonyl-L-glutaminyl-L-tryptophyl-L-seryl-L-tyrosyl-D-phenylalanyl-L-leucyl-L-arginyl-L-proline N-ethylamide] (Cbz-QWSY[dF]LRP-NHEt)
% LH Release Inhibition [13]: 71% | LH Value [13]: 19.91 ng/mL | % LH Release Inhibition [14]: 23% | LH Value [14]: 38.13 ng/mL | % LH Release Inhibition [15]: 95% | LH Value [15]: 11.16 ng/mL | % LH Release Inhibition [16]: 42% | LH Value [16]: 30.85 ng/mL

CCNC(=O)[C@@H]1CCCN1C(=O)[C@H](CCCNC(=N)N)NC(=O)[C@H](CC(C)C)NC(=O)[C@@H](Cc1ccccc1)NC(=O)[C@H](Cc1ccc(O)cc1)NC(=O)[C@H](CO)NC(=O)[C@H](Cc1c[nH]c2ccccc12)NC(=O)[C@H](COCc1ccccc1)NC(=O)OCc1ccccc1.Cl [N^α -Benzyloxycarbonyl-O-benzyl-L-seryl-L-tryptophyl-L-seryl-L-tyrosyl-D-phenylalanyl-L-leucyl-L-arginyl-L-proline N-ethylamide hydrochloride] (Cbz-S(Bn)WSY[dF]LRP-NHEt)
% LH Release Inhibition [17]: 99% | LH Value [17]: 9.16 ng/mL | % LH Release Inhibition [18]: 68% | LH Value [18]: 19.35 ng/mL | % LH Release Inhibition [19]: 18% | LH Value [19]: 36.48 ng/mL | % LH Release Inhibition [20]: 83% | LH Value [20]: 14.48 ng/mL | % LH Release Inhibition [21]: 37% | LH Value [21]: 29.88 ng/mL | % LH Release Inhibition [22]: 93% | LH Value [22]: 11.16 ng/mL | % LH Release Inhibition [23]: 93% | LH Value [23]: 10.95 ng/mL | % LH Release Inhibition [24]: 50% | LH Value [24]: 25.41 ng/mL

N^α -Benzyloxycarbonyl-O-benzyl-L-seryl-L-tryptophyl-L-seryl-L-tyrosyl-DL-pentamethylphenylalanyl-L-leucyl-L-arginyl-L-proline N-ethylamide
% LH Release Inhibition [1]: 102% | LH Value [1]: 12.61 ng/mL | % LH Release Inhibition [2]: 89% | LH Value [2]: 17.58 ng/mL | % LH Release Inhibition [4]: 102% | LH Value [4]: 12.47 ng/mL | % LH Release Inhibition [5]: 61% | LH Value [5]: 28.53 ng/mL | % LH Release Inhibition [6]: 96% | LH Value [6]: 14.80 ng/mL | % LH Release Inhibition [7]: 62% | LH Value [7]: 28.31 ng/mL | % LH Release Inhibition [8]: 100% | LH Value [8]: 18.35 ng/mL | % LH Release Inhibition [9]: 42% | LH Value [9]: 48.03 ng/mL | % LH Release Inhibition [10]: 108% | LH Value [10]: 13.91 ng/mL | % LH Release Inhibition [11]: 65% | LH Value [11]: 36.04 ng/mL | % LH Release Inhibition [12]: 87% | LH Value [12]: 24.94 ng/mL

N^α -Benzyloxycarbonyl-N^γ -benzyl-L-glutaminyl-L-tryptophyl-L-seryl-L-tyrosyl-D-phenylalanyl-L-leucyl-L-arginyl-L-proline N-ethylamide
% LH Release Inhibition [17]: 92% | LH Value [17]: 11.28 ng/mL | % LH Release Inhibition [18]: 56% | LH Value [18]: 23.66 ng/mL | % LH Release Inhibition [19]: 35% | LH Value [19]: 30.60 ng/mL | % LH Release Inhibition [25]: 94% | LH Value [25]: 10.77 ng/mL | % LH Release Inhibition [20]: 60% | LH Value [20]: 22.09 ng/mL | % LH Release Inhibition [21]: 20% | LH Value [21]: 35.62 ng/mL | % LH Release Inhibition [22]: 61% | LH Value [22]: 21.76 ng/mL | % LH Release Inhibition [23]: 81% | LH Value [23]: 15.07 ng/mL | % LH Release Inhibition [24]: 51% | LH Value [24]: 25.13 ng/mL

LRF: luteinizing hormone releasing factor, also referred to as luteinizing hormone releasing hormone, or LH-RH; stimulates secretion of luteinizing hormone (QHWSYGLRPG; Gonadoliberin-1; UniProt P01148 24-33, looked up) [reference compound]
LH Value (LRF alone 3.5×10^-10 molar, saline control 8.72): 42.38 ng/mL | LH Value (LRF alone 5×10^-10 molar, saline control 9.10): 46.58 ng/mL | LH Value (first series, LRF alone 5×10^-10 molar, saline control 13.28): 52.80 ng/mL | LH Value (second series, LRF alone 5×10^-10 molar, saline control 18.17): 69.43 ng/mL

Reference: patent US4111923A, “Octapeptides and methods for their production” (Parke, Davis & Company, priority 1976, dated 1978)
